This is an account of results in patent publication US9157904B2, “Wnt antagonists and methods of treatment and screening” (OncoMed Pharmaceuticals, Inc., priority 2010, dated 2015).

Molecules are shown by their SMILES.

One test deals with PN4 pancreatic tumors. The test can be described thus: In vivo limiting dilution assay of treated PN4 tumors. Details: species or system NOD/SCID mice. The note with it: day 75 after injection of 30, 90, 270 cells, control 7 out of 30. An excerpt: Limiting dilution assays (LDA) can be used to assess the effect of therapeutic agents on solid tumor cancer stem cells and on the tumorigenicity of a tumor comprising the cancer stem cells. Such assays can be used to determine the frequency of cancer stem cells in tumors from animals treated with the FZD8-Fc fusion protein or other agent and to compare that frequency to the frequency of cancer stem cells in tumors from control animals. Control and treated tumors from the PN4 xenograft study described above were harvested at the end of the study (day 85). The tumors were processed and dissociated into single cells. […] The human cells in the suspension were harvested, counted, and stained for cell surface markers and appropriate cell doses (30, 90, and 270 cells) in FACS buffer were mixed in a 1:1 mixture with Matrigel and injected subcutaneously in NOD/SCID mice (10 mice per cell dose per treatment group). […] At the desired time point, the percentage of mice with detectable tumors was determined in all groups injected with FZD8-Fc-treated tumor cells and compared to the percentage of mice with detectable tumors in the controls. For example, the number of mice injected with 125 control antibody-treated tumor cells that have detectable tumors is determined and compared to the number of mice injected with 125 FZD8-Fc treated tumor cells that have detectable tumors. […]

The test system of a further test is PN4 tumors. The test can be described thus: Flow cytometry for ESA and CD44 on treated PN4 tumors. Format: in vivo, NOD/SCID mice. The note with it: PN4 tumors harvested day 85, 5 tumors pooled; control antibody 12.7%. The method, then:
Control and treated tumors from the OMP-PN4 xenograft study described above were harvested at the end of the study (day 85). The tumors were processed and dissociated into single cells. Single cell suspensions derived from 5 tumors of each treatment group were pooled, and the pooled samples were then incubated on ice for 30 min with antibodies that bind mouse cells selectively (α-mouse CD45-biotin 1:200 dilution and rat α-mouse H2Kd-biotin 1:100 dilution, BioLegend, San Diego, Calif.), followed by addition of streptavidin-labeled magnetic beads (Invitrogen, Carlsbad, Calif.). Mouse cells were removed with the aid of a magnet. For analysis of human cell surface markers, the single tumor cell suspension was stained with anti-ESA (Biomeda, Hayward, Calif.) and anti-CD44 (BD Biosciences, San Jose, Calif.) antibodies which were directly conjugated to fluorochromes. Dead cells were excluded by using the viability dye DAPI. Flow cytometry was performed using a FACS Aria instrument (Becton Dickinson, Franklin Lakes, N.J.). Side scatter and forward scatter profiles were used to eliminate cell clumps.
(In flow cytometry, cells or beads pass a laser one at a time.)

The next test concerns PN21 pancreatic tumors. The test can be described thus: In vivo limiting dilution assay of treated PN21 tumors. On the set-up: species or system NOD/SCID mice. The note with it: day 72, L-Calc. From the text: As described above in Example 3, a limiting dilution assays was used to assess the effect of treatment with FZD8-Fc alone or in combination with gemcitabine on solid tumor cancer stem cells in the PN21 pancreatic tumor model.
Control and treated tumors from the PN21 xenograft study described above were harvested at the end of the study. The tumors were processed and dissociated into single cells. […] The human cells in the suspension were harvested, counted, and stained for cell surface markers and appropriate cell doses (30, 90, and 270 cells) in FACS buffer were mixed in a 1:1 mixture with Matrigel and injected subcutaneously in NOD/SCID mice (10 mice per cell dose per treatment group). […]
At the desired time point, the percentage of mice with detectable tumors was determined in all groups injected with treated tumor cells and compared to the percentage of mice with detectable tumors in control treated cells. For example, the number of mice injected with 125 control antibody-treated tumor cells that have detectable tumors is determined and compared to the number of mice injected with 125 FZD8-Fc treated tumor cells that have detectable tumors.
On day 72 after injection of the cells, tumor take rates in the various groups were determined and the cancer stem cell frequency was calculated using L-Calc™ software (StemCell Technologies Inc.; www.stemcell.com).

`Nc1ccn([C@@H]2O[C@H](CO)[C@@H](O)C2(F)F)c(=O)n1` [gemcitabine, reference compound]: the tumor take rate with PN4 pancreatic tumors is listed as 7 mice out of 30 mice. Besides, the “bulk tumor population expressing both ESA and CD44 at high levels (double positive population)” value in the test on PN4 tumors is on record as 13.9%. Also, in the test on PN21 pancreatic tumors, the “cancer stem cell frequency” value is reported as “slightly increased”.
